In EP4778921A1, “SALT FORM AND CRYSTAL FORM OF NITROGEN-CONTAINING HETEROCYCLIC DERIVATIVE INHIBITOR, AND PREPARATION METHOD THEREFOR AND USE THEREOF” (Shanghai Hansoh Biomedical Co., Ltd., priority 2023, dated 2025):
Counter-ions that a name gives are not always drawn.

Assays:
[1] = Hygroscopicity experiment (crystal forms of salts and crystal form A of free base); format: physicochemical; conditions: for weight gain after moisture absorption / hygroscopicity: RH 80%; for hygroscopicity: result in words; for crystal form transformation (XRPD pattern): after 1 cycle of moisture absorption and desorption, 0-95% relative humidity
Description: • 2.1 Experimental objective: The hygroscopicity of different crystal forms of salts of the compound was investigated under various relative humidity conditions to provide a basis for screening and storage of the crystal forms of salts of the compound. • 2.2 Experimental scheme: The crystal forms of salts of the compound were placed in saturated water vapor at different relative humidities to reach a dynamic equilibrium between the compound and the water vapor.
3.1 Experimental objective: The hygroscopicity of crystal form A of free base of the compound was investigated under various relative humidity conditions to provide a basis for screening and storage of the crystal forms of the compound.
3.2 Experimental scheme: The crystal form A of free base of the compound was placed in saturated water vapor at different relative humidities to reach a dynamic equilibrium between the compound and the water vapor. The percentage weight gain of the compound due to moisture absorption was calculated after the equilibrium.

[2] = Solid stability experiment of crystal forms of salts (7 and 14 days); format: physicochemical
Description: • 3.1 Experimental objective: To investigate the physical and chemical stability for different crystal forms of salts under the conditions of a high temperature of 60°C (GW), a high humidity of RH = 92.5% (GS), and both a high temperature of 50°C and a high humidity of RH = 75% (JS) and provide a basis for the screening of the crystal forms of salts and the storage of the crystal forms of salts of the compound. • 3.2 Experimental scheme: Different crystal forms of salts (crystal form A of hydrochloride, crystal form A of sulphate, crystal form A of citrate, crystal form A of oxalate, crystal form A of maleate and crystal form A of salicylate) were accurately weighed, and the stability of the crystal forms was investigated for 7 and 14 days under the three conditions of 60°C (GW), 92.5% RH (room temperature, GS), and 50°C/75% RH (JS). […] Therefore, they can well meet the requirements of subsequent drug development. […] Therefore, they both satisfy the requirements for subsequent drug storage.

[3] = Solubility experiments in different media, crystal forms of salts; format: physicochemical; design: thermodynamic solubility FaSSIF / thermodynamic solubility FaSSGF / thermodynamic solubility FeSSIF: unit not given here; conditions: about 2 mg suspended for 24 hours, 37°C, HPLC, external standard method; for thermodynamic solubility FaSSGF: FaSSGF (artificial simulated gastric fluid); for thermodynamic solubility FaSSIF: FaSSIF (fasted-state artificial simulated intestinal fluid); for thermodynamic solubility FeSSIF: FeSSIF (fed-state artificial simulated intestinal fluid)
Description: 4.1 Experimental objective: The solubility of the crystal form A of phosphate, crystal form A of hydrochloride, crystal form A of sulphate, crystal form A of citrate, crystal form A of oxalate, crystal form A of maleate and crystal form A of salicylate in media such as artificial simulated gastric fluid (FaSSGF), fasted-state artificial simulated intestinal fluid (FaSSIF), and fed-state artificial simulated intestinal fluid (FeSSIF) was compared to provide a basis for the evaluation of the potential of the crystal forms of salts being manufactured as a drug. […]

Ba/F3 EGFR Del19/C797S = assay: Cell proliferation inhibition experiment (Cell Titer-Glo); format: cell-based; conditions: Mus musculus, 72 hours, read-out: Ba/F3 EGFR Dell9/C797S IC50
Description: (§1) Experimental objective: The objective of this test example is to test the inhibitory activity of compounds on the proliferation of different EGFR C797S drug-resistant mutant cell lines Ba/F3 EGFR Del19/T790M/C797S, Ba/F3 EGFR L858R/T790M/C797S, and Ba/F3 EGFR Del19/C797S. Experimental instruments: Centrifuge (Eppendorf 5810R); Microplate reader (BioTek Synergy H1) Pipette (Eppendorf or Rainin); Carbon dioxide incubator (Thermo 311) Cell counter (Life Countess II) Experimental reagents and consumables: • Ba/F3 EGFR Del19/T790M/C797S cells were purchased from KYinno Biotechnology Co., Ltd.; • Ba/F3 EGFR Del19/C797S cells were purchased from CoBioer Biosciences Co., Ltd.; • Ba/F3 EGFR L858R/T790M/C797S cells were purchased from CoBioer Biosciences Co., Ltd.; • Cell Titer-Glo was purchased from Promega, with a catalogue number of G7573; • RPMI 1640 was purchased from Gibco, with a catalogue number of 22400089; • FBS was purchased from Gibco, with a catalogue number of 10091148; • cell culture plates were purchased from Corning, with a catalogue number of 3610. Experimental methods: The inhibitory activity of the compound on the proliferation of different EGFR C797S drug-resistant mutant cell lines was detected using the Cell Titer-Glo method. The different cell lines were cultured in RPMI 1640 complete culture medium containing 10% FBS under conditions of 37°C and 5% CO2, the cells were collected by centrifugation when growing to a certain density, and adjusted to appropriate cell density after counting, the cells were spread on a white 96-well plate at 90 µL/well, and cultured in a 37°C, 5% CO2 incubator overnight, prepared compound solutions at different concentrations were added at 10 µL/well, corresponding solvent controls were set, and all wells were cultured in a 37°C, 5% CO2 incubator for 72 hours, 50 µL of CellTiter-Glo solution was added to each well, shook and mixed evenly, and incubated in the dark for 10 minutes, and a BioTek Synergy H1 microplate reader was used for reading. Experimental data processing method: The luminescence signal value was used to calculate the inhibition rate. Graphpad Prism software was used to fit the concentration and inhibition rate to a nonlinear regression curve, so as to obtain the IC50 value, as shown in the Table below for details.

[4] = tested on: Ba/F3 EGFR Del19/T790M/C797S; assay: as above; format: cell-based; conditions: Mus musculus, 72 hours, read-out: Ba/F3 EGFR Del19_T790M_C797S IC50
Description: as §1

[5] = high temperature, high humidity, and both high temperature and high humidity conditions, 7 and 14 days
[6] = high temperature and high humidity conditions, 7 and 14 days
[7] = placed for a period of time under various conditions

Row | weight gain after moisture absorption [1] [%] | hygroscopicity [1] | crystal form transformation (XRPD pattern) [1] | stability (impurity increase) [2, 5] | thermodynamic solubility FaSSGF [3] | thermodynamic solubility FaSSIF [3] | thermodynamic solubility FeSSIF [3] | IC50 (Ba/F3 EGFR Del19/C797S) [nM] | stability (impurity increase) [2, 6] | stability (impurity increase) [2, 7] | IC50 [4] [nM] | Structure (SMILES)
1 | 1.707 | weak hygroscopicity | no crystal form transformation occurred | relatively stable | 0.070 | 0.035 | 1.228 | – | – | – | – | CC(C)c1c(F)cc(N2C[C@H](N(C)S(C)(=O)=O)[C@H]2C)c2cnc(Nc3ccnc(-c4cn(C)nc4Cl)n3)cc12 [crystal form A of oxalate, N-((2R,3S)-1-(3-((2-(3-chloro-1-methyl-1H-pyrazol-4-yl)pyrimidin-4-yl)amino)-6-fluoro-5-isopropylisoquinolin-8-yl)-2-methylazetidin-3-yl)-N-methylmethanesulphonamide]
2 | – | – | – | – | – | – | – | 14 | – | – | – | CC(C)c1c(F)cc(N2CC(N(C)S(C)(=O)=O)C2)c2cnc(Nc3ccnc(-c4cn(C)nc4Cl)n3)cc12 [Example 3, N-(1-(3-((2-(3-chloro-1-methyl-1H-pyrazol-4-yl)pyrimidin-4-yl)amino)-6-fluoro-5-isopropylisoquinolin-8-yl)azetidin-3-yl)-N-methylmethanesulphonamide]
3 | 2.050 | – | no crystal form transformation occurred | – | 0.075 | 0.029 | >1.020 | – | relatively stable | – | – | CC(C)c1c(F)cc(N2C[C@H](N(C)S(C)(=O)=O)[C@H]2C)c2cnc(Nc3ccnc(-c4cn(C)nc4Cl)n3)cc12 [crystal form A of maleate, N-((2R,3S)-1-(3-((2-(3-chloro-1-methyl-1H-pyrazol-4-yl)pyrimidin-4-yl)amino)-6-fluoro-5-isopropylisoquinolin-8-yl)-2-methylazetidin-3-yl)-N-methylmethanesulphonamide]
4 | 1.157 | weak hygroscopicity | no crystal form transformation occurred | – | – | – | – | – | – | – | – | CC(C)c1c(F)cc(N2C[C@H](N(C)S(C)(=O)=O)[C@H]2C)c2cnc(Nc3ccnc(-c4cn(C)nc4Cl)n3)cc12 [crystal form B of hydrochloride, N-((2R,3S)-1-(3-((2-(3-chloro-1-methyl-1H-pyrazol-4-yl)pyrimidin-4-yl)amino)-6-fluoro-5-isopropylisoquinolin-8-yl)-2-methylazetidin-3-yl)-N-methylmethanesulphonamide]
5 | – | – | – | – | – | – | – | 22 | – | – | – | Cc1nn(C)cc1-c1nccc(Nc2cc3c(C(C)C)c(F)cc(N4CC(N(C)S(C)(=O)=O)C4)c3cn2)n1 [Example 6, N-(1-(3-((2-(1,3-dimethyl-1H-pyrazol-4-yl)pyrimidin-4-yl)amino)-6-fluoro-5-isopropylisoquinolin-8-yl)azetidin-3-yl)-N-methylmethanesulphonamide]
6 | 0.573 | weak hygroscopicity | no crystal form transformation occurred | relatively stable | 0.053 | 0.159 | >0.870 | – | – | – | – | CC(C)c1c(F)cc(N2C[C@H](N(C)S(C)(=O)=O)[C@H]2C)c2cnc(Nc3ccnc(-c4cn(C)nc4Cl)n3)cc12 [crystal form A of citrate, N-((2R,3S)-1-(3-((2-(3-chloro-1-methyl-1H-pyrazol-4-yl)pyrimidin-4-yl)amino)-6-fluoro-5-isopropylisoquinolin-8-yl)-2-methylazetidin-3-yl)-N-methylmethanesulphonamide]
7 | 4.616 | – | no crystal form transformation occurred | – | 0.096 | 0.034 | 1.114 | – | – | remain stable | – | CC(C)c1c(F)cc(N2C[C@H](N(C)S(C)(=O)=O)[C@H]2C)c2cnc(Nc3ccnc(-c4cn(C)nc4Cl)n3)cc12 [crystal form A of sulphate, N-((2R,3S)-1-(3-((2-(3-chloro-1-methyl-1H-pyrazol-4-yl)pyrimidin-4-yl)amino)-6-fluoro-5-isopropylisoquinolin-8-yl)-2-methylazetidin-3-yl)-N-methylmethanesulphonamide]
8 | – | – | – | – | – | – | – | 19 | – | – | – | CC(C)c1c(F)cc(N2CC(NS(C)(=O)=O)C2)c2cnc(Nc3ccnc(-c4cn(C)nc4Cl)n3)cc12 [Example 13, N-(1-(3-((2-(3-chloro-1-methyl-1H-pyrazol-4-yl)pyrimidin-4-yl)amino)-6-fluoro-5-isopropylisoquinolin-8-yl)azetidin-3-yl)methanesulphonamide]
9 | 0.1374 | weak hygroscopicity | no crystal form transformation occurred | – | 0.020 | 0.101 | 0.672 | – | relatively stable | – | – | CC(C)c1c(F)cc(N2C[C@H](N(C)S(C)(=O)=O)[C@H]2C)c2cnc(Nc3ccnc(-c4cn(C)nc4Cl)n3)cc12 [crystal form A of salicylate, N-((2R,3S)-1-(3-((2-(3-chloro-1-methyl-1H-pyrazol-4-yl)pyrimidin-4-yl)amino)-6-fluoro-5-isopropylisoquinolin-8-yl)-2-methylazetidin-3-yl)-N-methylmethanesulphonamide]
10 | – | – | – | – | 0.072 | 0.214 | >1.016 | – | – | remain stable | – | CC(C)c1c(F)cc(N2C[C@H](N(C)S(C)(=O)=O)[C@H]2C)c2cnc(Nc3ccnc(-c4cn(C)nc4Cl)n3)cc12 [crystal form A of hydrochloride, N-((2R,3S)-1-(3-((2-(3-chloro-1-methyl-1H-pyrazol-4-yl)pyrimidin-4-yl)amino)-6-fluoro-5-isopropylisoquinolin-8-yl)-2-methylazetidin-3-yl)-N-methylmethanesulphonamide]
11 | – | – | – | – | – | – | – | 18 | – | – | 6.8 | Cc1nn(C)cc1-c1nccc(Nc2cc3c(C(C)C)c(F)cc(N4C[C@H](CS(C)(=O)=O)[C@H]4C)c3cn2)n1 [Example 4, N-(2-(1,3-dimethyl-1H-pyrazol-4-yl)pyrimidin-4-yl)-6-fluoro-5-isopropyl-8-((2R,3S)-2-methyl-3-((methanesulphonyl)methyl)azetidin-1-yl)isoquinolin-3-amine]
